The record followed here is patent US11786534B2 (TAIHO PHARMACEUTICAL CO., LTD., priority 2019, dated 2023).

What all share (assay type): biochemical
Assay [1] addresses T1, human EGFR (d746-750/T790M/C797S) (Homo sapiens, UniProt P00533, C797S/DEL746-750/T790M).
T1 construct: made in house; host or cells: Sf9 insect cells, baculovirus
Put plainly: Inhibitory activity against EGFR (d746-750/T790M/C797S) kinase. The protocol:
1) Measurement of inhibitory activity against EGFR (d746-750/T790M/C797S) kinase
The compounds of the above examples and comparative examples were measured for their inhibitory activity against EGFR (d746-750/T790M/C797S) kinase activity. Among the materials required for measurement of this inhibitory activity, the kinase protein (SEQ ID NO: 1) used was prepared as follows: the cytoplasmic domain of human EGFR (d746-750/T790M/C797S) fused at the ammo terminal end with a glutathione-S-transferase (GST) tag was expressed M insect cells (Sf9) by the baculovirus expression system and then purified an a glutathione sepharose column. For use as a substrate peptide, a peptide biotinylated at the N-terminal end (biotin -EEPLYWSFPAKKK) was synthesized by reference to Perkin Elmer LabChip® series reagent FL-Peptide 22.
Procedures for measurement of the inhibitory activity are as follows. First, the compounds of the present invention were each dissolved in dimethyl sulfoxide (DMSO), and their serial dilutions were then prepared with DMSO. Secondly, each compound serial dilution (final concentration of DMSO during kinase reaction: 2.5%) or DMSO (final concentration: 2.5%) was mixed with a solution containing the substrate peptide (final concentration: 250 nM), magnesium chloride (final concentration: 10 mM), manganese chloride (final concentration: 10 mM) and ATP (final concentration: 6 μM) in a kinase reaction buffer (Carna Biosciences Inc., Japan), and the EGFR (d746-750/T790M/C797S) protein was further added thereto, followed by incubation at 25° C. for 120 minutes to cause kinase reaction. To the reaction solution, EDTA was added to give a final concentration of 24 mM to thereby stop the reaction, followed by addition of a phospholylated tyrosine detection solution containing europium-labeled anti-phosphorylated tyrosine antibody PT66 (Perkin Elmer) and SureLight APC-SA (Perkin Elmer). The reaction solution was allowed to stand at room temperature for 2 hours or longer. As a background, DMSO was used instead of each compound solution in .DMSO, and EDIA was added prior to the addition of the EGFR EGFR (d746-750/T790M/C797S) protein, followed by incubation at 25° C. for 120 minutes. The same detection solution was also added to this reaction solution, which was then allowed to stand for 2 hours or longer. Finally, all the test samples were measured with a PHERAstar FS reader (BMG LABTECH) for their fluorescence intensity at two wavelengths of 620 nm and 665 nm upon irradiation with an excitation light of 337 nm wavelength, and the ratio of fluorescence intensities at these two wavelengths was obtained as data for each compound.
Moreover, as control compounds, the above Comparative Example A (Example 3 in WO2013/118817) and Comparative Example B (Example 35 in WO2013/118817) known to have EGFR inhibitory activity were used.
In accordance with the same procedures as shown in 1) in Test Example 1, the compounds of the above examples were measured for their inhibitory activity against EGFR (d746-750/T790M/C797S) kinase activity.

The target of assay [2] is T2, human EGFR (d746-750/C797S) (Homo sapiens, UniProt P00533, C797S/DEL746-750).
T2 construct: purchased SignalChem
The assay can be described thus: Inhibitory activity against EGFR (d746-750/C797S) kinase. Here is the method: 3) Measurement of inhibitory activity against EGFR (d746-750/C797S) kinase
The compounds of the present invention were measured for their inhibitory activity against EGFR (d746-750/C797S) kinase activity.
The materials, measurement procedures and data analysis method used in this test are substantially the same as those shown in the section “Measurement of inhibitory activity aiainst EGFR (d746-750/T790M/C797S) kinase.” However, among the materials, the kinase protein used was a purified recombinant human EGFR (d746-750/C797S) protein purchased from SignalChem, while the kinase reaction buffer used was 13.5 mM Tris (pH 7.5) containing 2 mM dithiothreitol and 0.009% Tween-20. In the measurement procedures, the final concentration of ATP was set to 14 μM, the final concentration of maganesium chloride was set to 20 mM, the final concentration of manganese chloride was set to 12.5 mM, the incubation time for kinase reaction was set to 60 minutes, and the final concentration of EDTA used to stop the kinase reaction was set to 40 mM. Finally, data analysis was conducted to determine to IC50 value (nM) of each compound against EGFR (d746-750/C797S).
In accordance with the same procedures as shown in 3) in Test Example 1, the compounds of the present invention were measured for their inhibitory activity against EGFR (d746-750/C797S) kinase activity.

The target of assay [3] is T3, human EGFR (L858R/T790M/C797S) (Homo sapiens, UniProt P00533, C797S/L858R/T790M).
T3 construct: made in house; host or cells: Sf9 insect cells, baculovirus
Put plainly: Inhibitory activity against EGFR (L858R/T790M/C797S) kinase. The protocol:
2) Measurement of inhibitory activity against EGFR (L858R/T790M/C797S) kinase
The compounds of the presein invention were measured for their inhibitory activity against EGFR (L858R/T790M/C797S) kinase activity.
The materials, measurement procedures and data analysis method used in this test are substantially the same as those shown in the section “Measurement of inhibitory activity against EGFR (d746-750/T790M/C797S) kinase.” However, among the materials, the kinase protein (SEQ ID NO: 2) used was prepared as follows: the cytoplasmic domain of human EGFR (L858R/T790M/C797S) fused at the amino terminal end with a GST tag was expressed in insect cells (Sf9) by the baculovirus expression system and then purified on a glutathione sepharose column. In the measurement procedures, the final concentration of ATP was set to 0.5 μM. Finally, data analysis was conducted to determine the IC50 value (nM) of each compound against EGFR (L858R/T790M/C797S).
In accordance with the same procedures as shown in 2) in Test Example 1, the compounds of the present invention were measured for their inhibitory activity against EGFR (L858R/T790M/C797S) kinase activity.

A further assay concerns the target T4, human EGFR (WT) (Homo sapiens, UniProt P00533).
T4 construct: purchased Carna Biosciences Inc., Japan
Put plainly: Inhibitory activity against EGFR (WT) kinase. The protocol: The compounds of the present invention were measured for their inhibitory activity nainst EGFR (WT) kinase activity.
The materials, measurement procedures and data analysis method used in this test. are substantially the same as those shown in the section “Measurement of inhibitory activity against EGFR (d746-750/T790M/C797S) kinase.” However, among the materials, the kinase protein used was a purified recombinant human EGFR (WT) purchased from Carna Biosciences Inc., Japan. In the measurement procedures, the final concentration of ATP was set to 1.5 μM. Finally, data analysis was conducted to determine the IC50 value (nM) of each compound against EGFR (WT).
In accordance with the same procedures as shown in 5) in Test Example 1, the compounds of the present invention were measured for their inhibitory activity against. EGFR (WT) kinase activity.

A further assay concerns the target T5, human EGFR (L858R/C797S) (Homo sapiens, UniProt P00533, C797S/L858R).
T5 construct: purchased SignalChem
Put plainly: Inhibitory activity against EGFR (L858R/C797S) kinase. Here is the method:
4) Measurement of inhibitory activity against EGFR (L858R/C797S) kinase
The compounds of the present invention were measured for their inhibitory activity aeainst EGFR (L858R/C797S) kinase activity.
The materials, measurement procedures and data analysis method used in this test are stibstantially the same as those shown in the section “Measurement of inhibitory activity against EGFR (d746-750/C797S) kinase.” However, among the materials, the kinase protein used was a purified recombinant human EGFR (C797S/L858R) protein purchased from SignalChem. In the measurement procedures, the final concentration of ATP was set to 4 μM, and the incubation time for kinase reaction was set to 90 minutes. Finally, data analysis was conducted determine the IC50 value (nM) of each compound against EGFR (L858R/C797S).
In accordance with the same procedures as shown in 4) in Test Example 1, the compounds of the present invention were measured for their inhibitor activity against. EGFR (L858R/C797S) kinase activity.

[4] abbreviates: Test Example 3, Table 8; same procedures as 1) in Test Example 1.
Where [5] appears, read: Test Example 3, Table 10; same procedures as 3) in Test Example 1.
Where [6] appears, read: Test Example 3, Table 9; same procedures as 2) in Test Example 1.
Setting [7] is: Test Example 3, Table 12; same procedures as 5) in Test Example 1.
The mark [8] stands for this setting: Test Example 3, Table 11; same procedures as 4) in Test Example 1.
Setting [9] is: Test Example 1, Table 2, ATP 6 μM, 25° C., 120 minutes.
Setting [10] is: Test Example 1, Table 4, ATP 14 μM, 60 minutes.
Where [11] appears, read: Test Example 1, Table 3, ATP 0.5 μM.
Where [12] appears, read: Test Example 1, Table 6, ATP 1.5 μM.
Setting [13] is: Test Example 1, Table 5, ATP 4 μM, 90 minutes.

In general, IC50 refers to the concentration at which inhibition is half-maximal. The low end stands for higher potency, the high end for lower potency. On to `C#Cc1c(-c2cnc3ccccc3c2)c2c(N)ncnc2n1C12CCC(NC(=O)c3cnc4ccccn34)(CC1)C2` [Example 64, N-(4-(4-Amino-6-ethynyl-5-(quinolin-3-yl)-7H-pyrrolo[2,3-d]pyrimidin-7-yl)bicyclo-[2.2.1]heptan-1-yl)imidazo[1,2-a]pyridine-3-carboxamide], for which the IC50 in assay [1] (setting [4]) was less than 0.3 nM; in assay [2] (setting [5]) it was 0.86 nM; in assay [3] (setting [6]), less than 0.3 nM; against human EGFR (WT) (setting [7]), 0.41 nM; against human EGFR (L858R/C797S) (setting [8]), 0.32 nM.

For the molecule `C#Cc1c(-c2cnc3ccccc3c2)c2c(N)ncnc2n1C12CCC(NC(=O)N3CCOCC3)(CC1)C2` [Example 61, N-(4-(4-Amino-6-ethynyl-5-(quinolin-3-yl)-7H-pyrrolo[2,3-d]pyrimidin-7-yl)bicyclo-[2.2.1]heptan-1-yl)morpholine-4-carboxamide], the IC50 in assay [1] (setting [4]) was less than 0.3 nM; in assay [2] (setting [5]), 0.54 nM; in assay [3] (setting [6]) it was 1.6 nM; against human EGFR (WT) (setting [7]) it was 2.7 nM; at human EGFR (L858R/C797S) (setting [8]), 1.1 nM.

As for “N-4-(4-Amino-6-ethynyl-5-(quinolin-3-yl)-7H-pyrrolo[2,3-d]pyrimidin-7-yl)bicyclo -[2.2.1]heptane-1-yl)oxazole-5-carboxamide [Example 47]”, the IC50 in assay [1] (setting [9]) is less than 0.3 nM; in assay [2] (setting [10]), 0.33 nM; in assay [3] (setting [11]) it was 0.59 nM; at human EGFR (WT) (setting [12]) it was 0.41 nM; at human EGFR (L858R/C797S) (setting [13]), 0.36 nM.

For `C#Cc1c(-c2cnc3ccccc3c2)c2c(N)ncnc2n1C12CCC(NC(=O)OCc3cnccn3)(CC1)C2` [Example 59, Pyrazin-2-ylmethyl (4-(4-amino-6-ethynyl-5-(quinolin-3-yl)-7H-pyrrolo[2,3-d]-pyrimidin-7-yl)bicyclo[2.2.1]heptane-1-yl)carbamate], the IC50 in assay [1] (setting [4]) was found to be 0.37 nM; in assay [2] (setting [5]), 0.83 nM; in assay [3] (setting [6]) it was 0.47 nM; at human EGFR (WT) (setting [7]) it was 2.2 nM; against human EGFR (L858R/C797S) (setting [8]), 1.7 nM.

For the molecule `C#Cc1c(-c2cnc3ccccc3c2)c2c(N)ncnc2n1C12CCC(NC(=S)NCC)(CC1)C2` [Example 52], the IC50 in assay [1] (setting [9]) was less than 0.3 nM; in assay [2] (setting [10]), 1.5 nM; in assay [3] (setting [11]) it was 0.6 nM; against human EGFR (WT) (setting [12]), 0.88 nM; on human EGFR (L858R/C797S) (setting [13]), 2.6 nM.

On to `C#Cc1c(-c2cnc3ccccc3c2)c2c(N)ncnc2n1C12CCC(NC(=O)c3cnc(CN4CCOCC4)cn3)(CC1)C2` [Example 69, N-(4-(4-Amino-6-ethynyl-5-(quinolin-3-yl)-7H-pyrrolo[2,3-d]pyrimidin-7-yl)bicyclo-[2.2.1]heptan-1-yl)-5-(morpholinomethyl)pyrazine-2-carboxamide], for which the IC50 in assay [1] (setting [4]) is less than 0.3 nM; in assay [2] (setting [5]), less than 0.3 nM; in assay [3] (setting [6]) it was less than 0.3 nM; against human EGFR (WT) (setting [7]), 0.74 nM; against human EGFR (L858R/C797S) (setting [8]), 0.59 nM.

For `C#Cc1c(-c2cnc3ccccc3c2)c2c(N)ncnc2n1C12CCC(NC(=O)c3cccc[n+]3[O-])(CC1)C2` [Example 60, 2-((4-(4-Amino-6-ethynyl-5-(quinolin-3-yl)-7H-pyrrolo[2,3-d]pyrimidin-7-yl)bicyclo-[2.2.1]heptane-1-yl)carbamoyl)pyridine 1-oxide], the IC50 is less than 0.3 nM in assay [1] (setting [4]); 0.3 nM in assay [2] (setting [5]); less than 0.3 nM in assay [3] (setting [6]); 0.72 nM against human EGFR (WT) (setting [7]); 0.48 nM against human EGFR (L858R/C797S) (setting [8]).

For the molecule `C#Cc1c(-c2cnc3ccccc3c2)c2c(N)ncnc2n1C12CCC(NC(=O)c3cnc(CNC)cn3)(CC1)C2` [Example 67, N-(4-(4-Amino-6-ethynyl-5-(quinolin-3-yl)-7H-pyrrolo[2,3-d]pyrimidin-7-yl)bicyclo-[2.2.1]heptan-1-yl)-5-((methylamino)methyl)pyrazine-2-carboxamide], the IC50 in assay [1] (setting [4]) is less than 0.3 nM; in assay [2] (setting [5]), 0.3 nM; in assay [3] (setting [6]) it was less than 0.3 nM; against human EGFR (WT) (setting [7]) it was 0.35 nM; against human EGFR (L858R/C797S) (setting [8]) it was 0.37 nM.

Take `C#Cc1c(-c2cnc3ccccc3c2)c2c(N)ncnc2n1C12CCC(NC(=O)[C@@H]3CNCCO3)(CC1)C2` [Example 62, (S)-N-(4-(4-Amino-6-ethynyl-5-(quinolin-3-yl)-7H-pyrrolo[2,3-d]pyrimidin-7-yl) -bicyclo[2.2.1]heptan-1-yl)morpholine-2-carboxamide]: the IC50 in assay [1] (setting [4]) is less than 0.3 nM; in assay [2] (setting [5]), 0.34 nM; in assay [3] (setting [6]), less than 0.3 nM; against human EGFR (WT) (setting [7]), 1.6 nM.
